{
  "source": "PubChem BioAssay AID258",
  "about": "(DTP/NCI, 2004)",
  "system": "CD2F1 mice, L1210 leukemia sc, survival T/C",
  "assay": "NCI In Vivo Anticancer Drug Screen. Data for tumor model L1210 Leukemia (subcutaneous) in CD2F1 (CDF1) mice",
  "conditions": "endpoint: median survival time, higher = longer survival",
  "procedure,_shortened": "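Transplantable tumor-bearing mice were treated with compound; survival or tumor size measured and expressed as treated-group value (T) divided by vehicle-treated control value (C).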",
  "note": "Where “and” joins values, the source holds several entries; their conditions need not be identical. Identical values can stand only once. Inconclusive results and toxic doses are left out.",
  "data": [
    {"compound": "O=C1NC(=O)C2C3C=CC(C12)C1C2C(=O)NC(=O)C2C31", "note": "(stereo not drawn)", "values": [
      {"measurement": "T/C", "setting": "dose: 3.0 mg/kg/injection, schedule: Q01DX005 (iv), vehicle: other", "result": "108 % of control"},
      {"measurement": "T/C", "setting": "dose: 6.0 mg/kg/injection, schedule: Q01DX005 (ip), vehicle: other", "result": "111 % of control"},
      {"measurement": "T/C", "setting": "dose: 6.0 mg/kg/injection, schedule: Q01DX005 (iv), vehicle: other", "result": "104 % of control"},
      {"measurement": "T/C", "setting": "dose: 6.0 mg/kg/injection, schedule: Q01DX005 (sc), vehicle: other", "result": "105 % of control"},
      {"measurement": "T/C", "setting": "dose: 12.0 mg/kg/injection, schedule: Q01DX005 (ip), vehicle: other", "result": "104 % of control"},
      {"measurement": "T/C", "setting": "dose: 12.0 mg/kg/injection, schedule: Q01DX005 (iv), vehicle: other", "result": "104 % of control and 107 % of control"},
      {"measurement": "T/C", "setting": "dose: 12.0 mg/kg/injection, schedule: Q01DX005 (sc), vehicle: other", "result": "108 % of control"},
      {"measurement": "T/C", "setting": "dose: 12.0 mg/kg/injection, schedule: Q01DX009 (ip), vehicle: other", "result": "115 % of control"},
      {"measurement": "T/C", "setting": "dose: 14.0 mg/kg/injection, schedule: Q01DX009 (ip), vehicle: water", "result": "110 % of control"},
      {"measurement": "T/C", "setting": "dose: 17.2 mg/kg/injection, schedule: Q01DX005 (iv), vehicle: other", "result": "107 % of control"},
      {"measurement": "T/C", "setting": "dose: 17.2 mg/kg/injection, schedule: Q01DX009 (ip), vehicle: other", "result": "122 % of control"},
      {"measurement": "T/C", "setting": "dose: 18.0 mg/kg/injection, schedule: Q01DX009 (ip), vehicle: clinical formulation", "result": "121 % of control"},
      {"measurement": "T/C", "setting": "dose: 24.5 mg/kg/injection, schedule: Q01DX005 (iv), vehicle: other", "result": "110 % of control"},
      {"measurement": "T/C", "setting": "dose: 25.0 mg/kg/injection, schedule: Q01DX005 (ip), vehicle: other", "result": "113 % of control"},
      {"measurement": "T/C", "setting": "dose: 25.0 mg/kg/injection, schedule: Q01DX005 (ip), vehicle: saline with Tween-80", "result": "105 % of control"},
      {"measurement": "T/C", "setting": "dose: 25.0 mg/kg/injection, schedule: Q01DX005 (sc), vehicle: other", "result": "114 % of control"},
      {"measurement": "T/C", "setting": "dose: 30.0 mg/kg/injection, schedule: Q01DX009 (ip), vehicle: clinical formulation", "result": "150 % of control"},
      {"measurement": "T/C", "setting": "dose: 38.9 mg/kg/injection, schedule: Q01DX009 (ip), vehicle: water", "result": "203 % of control"},
      {"measurement": "T/C", "setting": "dose: 50.0 mg/kg/injection, schedule: Q01DX005 (ip), vehicle: other", "result": "164 % of control"},
      {"measurement": "T/C", "setting": "dose: 50.0 mg/kg/injection, schedule: Q01DX005 (iv), vehicle: other", "result": "160 % of control and 175 % of control"},
      {"measurement": "T/C", "setting": "dose: 50.0 mg/kg/injection, schedule: Q01DX005 (oral), vehicle: other", "result": "105 % of control"},
      {"measurement": "T/C", "setting": "dose: 50.0 mg/kg/injection, schedule: Q01DX005 (sc), vehicle: other", "result": "152 % of control"},
      {"measurement": "T/C", "setting": "dose: 50.0 mg/kg/injection, schedule: Q01DX009 (ip), vehicle: clinical formulation", "result": "192 % of control"},
      {"measurement": "T/C", "setting": "dose: 50.0 mg/kg/injection, schedule: Q01DX009 (ip), vehicle: other", "result": "166 % of control"},
      {"measurement": "T/C", "setting": "dose: 64.8 mg/kg/injection, schedule: Q01DX009 (ip), vehicle: water", "result": "291 % of control"},
      {"measurement": "T/C", "setting": "dose: 71.4 mg/kg/injection, schedule: Q01DX005 (iv), vehicle: other", "result": "247 % of control"},
      {"measurement": "T/C", "setting": "dose: 71.4 mg/kg/injection, schedule: Q01DX009 (ip), vehicle: other", "result": "250 % of control"},
      {"measurement": "T/C", "setting": "dose: 83.3 mg/kg/injection, schedule: Q01DX009 (ip), vehicle: clinical formulation", "result": "106 % of control"},
      {"measurement": "T/C", "setting": "dose: 100.0 mg/kg/injection, schedule: Q01DX005 (ip), vehicle: saline with Tween-80", "result": "204 % of control"},
      {"measurement": "T/C", "setting": "dose: 100.0 mg/kg/injection, schedule: Q01DX005 (oral), vehicle: other", "result": "108 % of control"},
      {"measurement": "T/C", "setting": "dose: 100.0 mg/kg/injection, schedule: Q01DX005 (sc), vehicle: other", "result": "89 % of control"},
      {"measurement": "T/C", "setting": "dose: 200.0 mg/kg/injection, schedule: Q01DX005 (oral), vehicle: other", "result": "113 % of control"},
      {"measurement": "T/C", "setting": "dose: 252.0 mg/kg/injection, schedule: Q01DX009 (oral), vehicle: other", "result": "171 % of control"},
      {"measurement": "T/C", "setting": "dose: 378.0 mg/kg/injection, schedule: Q01DX009 (oral), vehicle: other", "result": "162 % of control"},
      {"measurement": "T/C", "setting": "dose: 400.0 mg/kg/injection, schedule: Q01DX005 (oral), vehicle: other", "result": "108 % of control"},
      {"measurement": "T/C", "setting": "dose: 800.0 mg/kg/injection, schedule: Q01DX005 (oral), vehicle: other", "result": "229 % of control"},
      {"measurement": "T/C", "setting": "dose: 850.0 mg/kg/injection, schedule: Q01DX009 (oral), vehicle: other", "result": "182 % of control"},
      {"measurement": "T/C", "setting": "dose: 1274.0 mg/kg/injection, schedule: Q01DX009 (oral), vehicle: other", "result": "225 % of control"}
    ]},
    {"compound": "CN(C)CCN1C(=O)c2cccc3cc(N)cc(c23)C1=O", "values": [
      {"measurement": "T/C", "setting": "dose: 5.0 mg/kg/injection, schedule: Q01DX009 (ip), vehicle: acid diluted with saline", "result": "102 % of control and 105 % of control and 118 % of control"},
      {"measurement": "T/C", "setting": "dose: 7.0 mg/kg/injection, schedule: Q01DX009 (ip), vehicle: acid diluted with saline", "result": "103 % of control and 115 % of control and 121 % of control"},
      {"measurement": "T/C", "setting": "dose: 10.0 mg/kg/injection, schedule: Q01DX009 (ip), vehicle: acid diluted with saline", "result": "112 % of control"},
      {"measurement": "T/C", "setting": "dose: 16.0 mg/kg/injection, schedule: Q01DX009 (ip), vehicle: acid diluted with saline", "result": "150 % of control and 173 % of control"},
      {"measurement": "T/C", "setting": "dose: 24.0 mg/kg/injection, schedule: Q01DX009 (ip), vehicle: acid diluted with saline", "result": "116 % of control"}
    ]}
  ]
}
